Literature values as cited in patent publication US20100255088A1 (priority 2009, published 2010).
Where two headings read alike, the source gives them in different places.

Tests used:
[1] = not given; remark: listed apart in the source
platelet aggregation = settings: aspirin resistance group of patients
[2] = test system: isolated pig retinal artery; settings: through the NO system and prostacycline secretion
[3] = test system: yeast and primitives animals; settings: high resveratrol levels artificially maintained
H+/K+ ATPase = H+/K+ ATPase (Homo sapiens, UniProt P20648); settings: Life Sciences 66(8), 2000, 663-673
Chain of H+/K+ ATPase (P20648 whole entry): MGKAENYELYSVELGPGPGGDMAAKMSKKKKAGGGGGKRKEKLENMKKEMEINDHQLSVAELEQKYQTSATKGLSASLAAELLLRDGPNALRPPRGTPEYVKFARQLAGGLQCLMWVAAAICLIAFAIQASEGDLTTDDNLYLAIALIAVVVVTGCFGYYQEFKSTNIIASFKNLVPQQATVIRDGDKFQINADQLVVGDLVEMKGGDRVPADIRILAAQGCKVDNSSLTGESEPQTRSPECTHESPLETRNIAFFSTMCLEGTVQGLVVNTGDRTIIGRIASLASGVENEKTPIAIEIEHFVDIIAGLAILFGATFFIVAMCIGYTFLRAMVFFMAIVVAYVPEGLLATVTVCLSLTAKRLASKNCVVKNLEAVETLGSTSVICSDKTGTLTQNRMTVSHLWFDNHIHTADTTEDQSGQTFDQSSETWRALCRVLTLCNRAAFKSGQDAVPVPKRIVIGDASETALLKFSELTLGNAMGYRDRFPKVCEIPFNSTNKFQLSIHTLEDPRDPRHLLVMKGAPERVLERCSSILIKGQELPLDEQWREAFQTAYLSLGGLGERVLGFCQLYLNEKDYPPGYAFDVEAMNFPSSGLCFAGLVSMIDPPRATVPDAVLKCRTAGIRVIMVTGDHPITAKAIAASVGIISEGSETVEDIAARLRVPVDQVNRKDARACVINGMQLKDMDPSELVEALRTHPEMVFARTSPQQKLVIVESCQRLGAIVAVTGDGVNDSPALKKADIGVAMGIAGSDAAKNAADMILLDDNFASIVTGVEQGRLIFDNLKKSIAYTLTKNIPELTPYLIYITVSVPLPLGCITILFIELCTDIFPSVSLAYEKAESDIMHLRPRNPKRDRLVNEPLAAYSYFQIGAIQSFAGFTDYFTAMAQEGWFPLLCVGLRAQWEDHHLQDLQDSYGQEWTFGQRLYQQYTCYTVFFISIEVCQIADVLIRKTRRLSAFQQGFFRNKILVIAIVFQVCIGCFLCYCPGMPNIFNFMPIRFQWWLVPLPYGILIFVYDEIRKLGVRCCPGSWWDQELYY
Chain of H+/K+ ATPase (P51164 whole entry partner): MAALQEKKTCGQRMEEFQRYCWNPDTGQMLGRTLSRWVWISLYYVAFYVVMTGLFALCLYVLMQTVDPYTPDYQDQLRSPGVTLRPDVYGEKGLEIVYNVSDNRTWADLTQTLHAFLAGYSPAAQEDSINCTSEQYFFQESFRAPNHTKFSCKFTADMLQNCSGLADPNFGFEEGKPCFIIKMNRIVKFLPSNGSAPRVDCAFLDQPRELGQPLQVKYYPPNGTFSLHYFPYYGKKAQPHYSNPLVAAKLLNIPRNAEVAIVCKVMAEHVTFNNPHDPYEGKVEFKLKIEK

SMILES	patients with reduced mortality (at least 325 mg daily for ten years)	incidence of various human carcinomas (full dose aspirin for ten years and above)	patients with reduced mortality (higher doses for ten years)	water solubility [1]	platelet aggregation inhibition (platelet aggregation)	vasodilating effect [2]	life span [3]	hydrochloric acid production (H+/K+ ATPase)
CC(=O)Oc1ccccc1C(=O)O [aspirin, acetyl salicylic acid]	50%	halved	75%	not water-soluble				
Oc1ccc(C=Cc2cc(O)cc(O)c2)cc1 [resveratrol]					optimal platelet aggregation inhibition	strong vasodilating effect	doubling the life span	reducing significantly the hydrochloric acid production
